Source: patent US5100909A, “Acetylenic imidazoles having central nervous system activity” (The Upjohn Company, priority 1991, dated 1992)
Where “and” joins values, the source holds several entries; their conditions need not be identical. Identical values can stand only once. Like-named read-outs stand apart in the source and are kept apart here.

Legend:
[1] = system: oxotremorine-induced body tremor in mice; assay: Oxotremorine antagonist assay (body tremor) in mice; format: in vivo; conditions: Mus musculus, ip, read-out: Oxot. Antagonist Tremor (ED50)
Description: Oxotremorine antagonist assays were performed on groups of six mice weighing 18-22 g. Each was dosed intraperitoneally with the test compound prepared in 0.25% methylcellulose and were placed in individual cages. Twenty minutes later the mice were injected subcutaneously with 0.5 mg/kg of oxotremorine dissolved in saline. Ten minutes later the mice were scored for body tremor. Doses of the compound under study began at 100 mg/kg and were decreased at a 0.5 log interval until no responders were obtained.

laboratory animals = conditions: by a cholinergic mechanism at extremely low doses; cited from earlier work
CNS cholinergic receptor [2] = format: binding; conditions: tritiated quinuclidine benzylate; read-out: CNS Cholinergic Receptor Binding Assays Ki (nM) QNB
CNS cholinergic receptor [3] = assay: Cholinergic receptor binding assay, tritiated oxotremorine M ligand; conditions: read-out: CNS Cholinergic Receptor Binding Assays Ki (nM) Oxotremorine
[4] = system: HCl-induced writhing in CF1 mice; assay: Analgesic activity, HCl writhing protection in mice; format: in vivo; conditions: Mus musculus, sc, 0.25 h, read-out: CNS Id (ED50 mg/kg) HCl Writh. Protect
Description: For determination of analgesic activity, the test compound was injected subcutaneously into a group of four CF1 mice. Thirty minutes later the mice were injected i.p. with 0.15% HCl, 10 ml./kg. Mice are then placed in plastic boxes and observed for fifteen minutes to record the number of animals failing to writhe.

[5] = U.S. Pat. No. 3,925,411; cited from earlier work

SMILES | ED50 [1] | tremors and spasticity in laboratory animals (laboratory animals) | Ki (CNS cholinergic receptor [2]) | Ki (CNS cholinergic receptor [3]) | ED50 [4] | half life compared with prior oxotremorine compounds [5]
O=C1CCCN1CC#CCN1CCCC1 [Oxotremorine, N-(4-pyrrolidino-2-butynyl)-pyrrolidin-2-one, reference compound] | 0.11 mg/kg | induces tremors and spasticity in laboratory animals | 220 nM | 0.4 nM and 0.5 nM | 0.025 mg/kg | –
O=C1CCCN1CCC#CCN1CCCC1 [N-(5-pyrrolidino-3-pentynyl)-pyrrolidin-2-one] | – | – | – | – | – | increased half life
